Laboratory results from patent US8563567B2, “Substituted heterocyclic compounds” (ArQule, Inc., priority 2009, dated 2013).

Legend:
DLD-1 = assay: MTS assay, DLD-1; type: cell-based; conditions: Homo sapiens, DLD-1, 72 h
Procedure: (§1) Cells were maintained at 37° C., 5% CO2 in RPMI media supplemented with 1% fetal bovine serum, penicillin/streptomycin and fungizone (Invitrogen). Cells were seeded into 96-well tissue culture plates at 3000 per well and cultured at 37° C. for 18 h. Test compounds were dissolved and diluted to 300× in DMSO then diluted 1:40 in DMEM. Cells were incubated with test compounds for 72 hours followed by incubation with tetrazolium compound (3-(4,5-dimethylthiazol-2-yl)-5-(3-carboxymethoxyphenyl)-2-(4-sulfophenyl)-2H-tetrazolium, inner salt; MTS) and the electron coupling reagent, phenazine methosulfate (PMS) for 4 hours. […] The ability of compounds to inhibit cell growth in this assay is correlated with the reduction of dehydrogenase enzyme activity found in metabolically active cells. The measurement of the absorbance of the formazan was assessed using an ENVISION™ (Perkin Elmer) microplate reader at 492 nm. The calculated IC50 value is the concentration of the test compound that causes a 50% decrease in the absorbance.

FGFR2 (N549H) = target: T1, FGFR2 (N549H) (Homo sapiens, UniProt P21802, N549H); assay: FGFR2 kinase activity assay (fluorescent ELISA); type: biochemical
T1 construct: purchased Millipore 14-742
T1 sequence (P21802 22-821 N549H): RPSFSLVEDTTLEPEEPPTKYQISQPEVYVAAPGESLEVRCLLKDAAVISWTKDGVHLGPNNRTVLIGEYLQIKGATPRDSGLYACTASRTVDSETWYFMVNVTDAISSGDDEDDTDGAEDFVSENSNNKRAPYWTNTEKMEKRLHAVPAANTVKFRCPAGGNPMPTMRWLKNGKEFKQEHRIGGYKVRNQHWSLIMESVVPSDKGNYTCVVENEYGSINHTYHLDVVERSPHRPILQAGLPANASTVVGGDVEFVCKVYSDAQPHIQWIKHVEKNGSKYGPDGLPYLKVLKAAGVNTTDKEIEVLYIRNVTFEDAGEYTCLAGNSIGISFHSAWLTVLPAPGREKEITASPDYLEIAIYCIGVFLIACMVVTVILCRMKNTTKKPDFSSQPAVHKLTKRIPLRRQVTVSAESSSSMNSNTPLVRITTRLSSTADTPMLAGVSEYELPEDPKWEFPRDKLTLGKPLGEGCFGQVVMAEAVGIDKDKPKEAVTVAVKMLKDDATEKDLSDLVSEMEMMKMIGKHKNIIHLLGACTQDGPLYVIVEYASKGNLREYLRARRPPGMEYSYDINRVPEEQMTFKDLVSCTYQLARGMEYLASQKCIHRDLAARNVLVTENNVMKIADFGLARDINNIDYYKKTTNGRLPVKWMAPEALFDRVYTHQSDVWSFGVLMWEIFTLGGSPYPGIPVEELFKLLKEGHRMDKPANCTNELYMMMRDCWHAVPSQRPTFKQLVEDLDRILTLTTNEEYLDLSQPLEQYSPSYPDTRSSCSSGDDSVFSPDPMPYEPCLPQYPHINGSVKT
Procedure: The enzymatic assays described herein are conducted according to the following procedures from commercially available reagents. In one, non limiting, example, a fluorescent ELISA assay is used to identify and characterize inhibitors of FGFR2 kinase as described herein. This heterogeneous assay utilizes a biotinylated peptide with a tyrosine motif as a substrate and an anti-phospho-tyrosine antibody to measure phosphorylation of the substrate. The reaction is initiated by adding the test compound, 37 μM Pyk2 substrate (Midwest Biotech, Cat. # MBT2383), 12.5 μM ATP (Roche, Cat. #11 140 965 001) and 0.5 μM FGFR2 enzyme (Millipore, Cat. #14-742) sequentially to a non-binding polypropylene V-well plate. All reagents are in an assay buffer consisting of: 50 mM Tris-HCL, 0.02 mg/ml BSA, 10 mM MgCl2, 0.1 mM Na3VO4, 1 mM EGTA, 75 μM ATP, 0.01% NP-40, 2 mM DTT and 10% glycerol. The reaction is incubated for 60 minutes. As the reaction proceeds, FGFR2 phosphorylates tyrosines in the peptide. The reaction mixture is then moved to a blocked streptavidin-coated Nunc Maxisorb plate (coated with 100 ng streptavidin from Pierce (Cat. #15-124) per well), allowing for the capture of the biotinylated peptide. Peptides are captured for 30 minutes at room temperature, the phosphorylation of peptides continues during this phase. The reaction is stopped by washing the streptavidin-coated plate 6 times with TBST. Phosphorylated peptide is detected by adding anti-phospho-tyrosine antibody (Cell Signaling, Cat. #9411, diluted 1:3000) to the streptavidin-coated plate. Unbound anti-phospho-tyrosine antibody is removed by washing the streptavidin-coated plate 6 times with TBST. Secondary detection is performed using alkaline phosphatase tagged goat anti-mouse antibody (Pierce, Cat. #31320, diluted 1:4000) for one hour. Unbound secondary antibody is removed by washing the streptavidin-coated plate 6 times with TBST. The fluorescent readout is initiated by adding to the streptavidin-coated plate Promega Attophos substrate (Promega, Cat. # S1000, dilution=6 mg/10 ml), which, when dephosphorylated by alkaline phosphatase, emits a fluorescent signal of 595 nm in wavelength when excited by a signal of 400 nm in wavelength. The reading of the 595 nm signal is done on the Perkin Elmer Envision system. Compounds which prevent FGFR2 from phosphorylating the peptide result in a lower fluorescent signal. The 595 nm fluorescent signal is directly proportional to the activity of FGFR2. Thus, the inhibition of FGFR2 by compounds is monitored by the decrease in the 595 nm fluorescent signal.

MDA-MB-231 = assay: MTS assay, MDA-MB-231; type: cell-based; conditions: Homo sapiens, MDA-MB-231, 72 h
Procedure: as §1

Row | inhibition at 30 µM (FGFR2 (N549H)) [%] | Compound | inhibition at 10 µM (DLD-1) [%] | inhibition at 10 µM (MDA-MB-231) [%]
1 | 60 | CCOC(=O)CNC(=O)N1CCC(CNc2nccc(-c3cn4c5c(cccc35)CCC4)n2)CC1 [Compound 34, ethyl 2-(4-((4-(5,6-dihydro-4H-pyrrolo[3,2,1-ij]quinolin-1-yl)pyrimidin-2-ylamino)methyl)piperidine-1-carboxamido)acetate] | 65 | –
2 | – | O=S(=O)(c1ccc(Cl)cc1)N1CCC(CNc2nccc(-c3cn4c5c(cccc35)CCC4)n2)CC1 [Compound 35, N-((1-(4-chlorophenylsulfonyl)piperidin-4-yl)methyl)-4-(5,6-dihydro-4H-pyrrolo[3,2,1-ij]quinolin-1-yl)pyrimidin-2-amine] | 97 | 98
3 | – | CC(C)(C)C(=O)N1CCC(CNc2nccc(-c3cn4c5c(cccc35)CCC4)n2)CC1 [Compound 36, 1-(4-((4-(5,6-dihydro-4H-pyrrolo[3,2,1-ij]quinolin-1-yl)pyrimidin-2-ylamino)methyl)piperidin-1-yl)-2,2-dimethylpropan-1-one] | 85 | –
4 | 102 | c1cc2c3c(c1)c(-c1ccnc(N[C@H]4CCCNC4)n1)cn3CCC2 [Compound 37, (S)-4-(5,6-dihydro-4H-pyrrolo[3,2,1-ij]quinolin-1-yl)-N-(piperidin-3-yl)pyrimidin-2-amine] | 83 | 83
5 | 79 | COc1ccc(NC(=O)N2CCC(CNc3nccc(-c4cn5c6c(cccc46)CCC5)n3)CC2)cc1 [Compound 38, 4-((4-(5,6-dihydro-4H-pyrrolo[3,2,1-ij]quinolin-1-yl)pyrimidin-2-ylamino)methyl)-N-(4-methoxyphenyl)piperidine-1-carboxamide] | 97 | 98
6 | 71 | O=C(Nc1ccc(-c2ccccc2)cc1)N1CCC(CNc2nccc(-c3cn4c5c(cccc35)CCC4)n2)CC1 [Compound 39, N-(biphenyl-4-yl)-4-((4-(5,6-dihydro-4H-pyrrolo[3,2,1-ij]quinolin-1-yl)pyrimidin-2-ylamino)methyl)piperidine-1-carboxamide] | 52 | 31
7 | 68 | CCOC(=O)c1ccc(NC(=O)N2CCC(CNc3nccc(-c4cn5c6c(cccc46)CCC5)n3)CC2)cc1 [Compound 40, ethyl 4-(4-((4-(5,6-dihydro-4H-pyrrolo[3,2,1-ij]quinolin-1-yl)pyrimidin-2-ylamino)methyl)piperidine-1-carboxamido)benzoate] | 98 | 99
8 | 68 | CCOC(=O)NC(=O)N1CCC(CNc2nccc(-c3cn4c5c(cccc35)CCC4)n2)CC1 [Compound 41, ethyl 4-((4-(5,6-dihydro-4H-pyrrolo[3,2,1-ij]quinolin-1-yl)pyrimidin-2-ylamino)methyl)piperidine-1-carbonylcarbamate] | – | 33
9 | 66 | O=C(Nc1ccccc1)N1CCC(CNc2nccc(-c3cn4c5c(cccc35)CCC4)n2)CC1 [Compound 42, 4-((4-(5,6-dihydro-4H-pyrrolo[3,2,1-ij]quinolin-1-yl)pyrimidin-2-ylamino)methyl)-N-phenylpiperidine-1-carboxamide] | 97 | 79
10 | 65 | CCCNC(=O)N1CCC(CNc2nccc(-c3cn4c5c(cccc35)CCC4)n2)CC1 [Compound 43, 4-((4-(5,6-dihydro-4H-pyrrolo[3,2,1-ij]quinolin-1-yl)pyrimidin-2-ylamino)methyl)-N-propylpiperidine-1-carboxamide] | 86 | 43
11 | 65 | O=C(Nc1ccc(Cl)cc1)N1CCC(CNc2nccc(-c3cn4c5c(cccc35)CCC4)n2)CC1 [Compound 44, N-(4-chlorophenyl)-4-((4-(5,6-dihydro-4H-pyrrolo[3,2,1-ij]quinolin-1-yl)pyrimidin-2-ylamino)methyl)piperidine-1-carboxamide] | 97 | 84
12 | 64 | Cc1ccc(NC(=O)N2CCC(CNc3nccc(-c4cn5c6c(cccc46)CCC5)n3)CC2)cc1 [Compound 45, 4-((4-(5,6-dihydro-4H-pyrrolo[3,2,1-ij]quinolin-1-yl)pyrimidin-2-ylamino)methyl)-N-p-tolylpiperidine-1-carboxamide] | 94 | 72
13 | 61 | CC(C)NC(=O)N1CCC(CNc2nccc(-c3cn4c5c(cccc35)CCC4)n2)CC1 [Compound 46, 4-((4-(5,6-dihydro-4H pyrrolo[3,2,1-ij]quinolin-1-yl)pyrimidin-2-ylamino)methyl)-N-isopropylpiperidine-1-carboxamide] | 52 | –
14 | 60 | O=C(NCc1ccccc1)N1CCC(CNc2nccc(-c3cn4c5c(cccc35)CCC4)n2)CC1 [Compound 47, N-benzyl-4-((4-(5,6-dihydro-4H-pyrrolo[3,2,1-ij]quinolin-1-yl)pyrimidin-2-ylamino)methyl)piperidine-1-carboxamide] | 98 | 97
15 | 59 | CS(=O)(=O)N1CCC(CNc2nccc(-c3cn4c5c(cccc35)CCC4)n2)CC1 [Compound 48, 4-(5,6-dihydro-4H-pyrrolo[3,2,1-ij]quinolin-1-yl)-N-((1-(methylsulfonyl)piperidin-4-yl)methyl)pyrimidin-2-amine] | – | –
16 | 58 | O=C(Nc1cccc(Cl)c1)N1CCC(CNc2nccc(-c3cn4c5c(cccc35)CCC4)n2)CC1 [Compound 49, N-(3-chlorophenyl)-4-((4-(5,6-dihydro-4H-pyrrolo[3,2,1-ij]quinolin-1-yl)pyrimidin-2-ylamino)methyl)piperidine-1-carboxamide] | 96 | 85
17 | 51 | CC(C)(C)NC(=O)N1CCC(CNc2nccc(-c3cn4c5c(cccc35)CCC4)n2)CC1 [Compound 52, N-tert-butyl-4-((4-(5,6-dihydro-4H-pyrrolo[3,2,1-ij]quinolin-1-yl)pyrimidin-2-ylamino)methyl)piperidine-1-carboxamide] | 55 | –
18 | – | Cc1nnc(-c2cn3c4c(cccc24)CCC3)o1 [Compound 56, 1-(5-methyl-1,3,4-oxadiazol-2-yl)-5,6-dihydro-4H-pyrrolo[3,2,1-ij]quinoline] | 94 | 77
19 | – | Clc1ccc(-c2nnc(-c3cn4c5c(cccc35)CCC4)o2)cc1 [Compound 63, 1-[5-(4-chlorophenyl)-1,3,4-oxadiazol-2-yl]-5,6-dihydro-4H-pyrrolo[3,2,1-ij]quinoline] | 98 | 100
20 | 91 | c1cc2c3c(c1)c(-c1nnnn1CC1CCNCC1)cn3CCC2 [Compound 81, 1-[1-(piperidin-4-ylmethyl)-1H-tetrazol-5-yl]-5,6-dihydro-4H-pyrrolo[3,2,1-ij]quinoline] | – | –
21 | 91 | NC1CCC(n2nnnc2-c2cn3c4c(cccc24)CCC3)CC1 (stereo not shown) [Compound 82, 4-[5-(5,6-dihydro-4H-pyrrolo[3,2,1-ij]quinolin-1-yl)-1H-tetrazol-1-yl]cyclohexanamine] | – | –
22 | 84 | c1cc2c3c(c1)c(-c1nnnn1C1CCCNC1)cn3CCC2 (stereo not shown) [Compound 83, 1-(1-piperidin-3-yl-1H-tetrazol-5-yl)-5,6-dihydro-4H-pyrrolo[3,2,1-ij]quinoline] | – | –
